Laboratory results reported in patent US20230265116A1, “DEGRADATION OF (EGFR) BY CONJUGATION OF EGFR INHIBITORS WITH E3 LIGASE LIGAND AND METHODS OF USE” (BEIGENE, LTD., priority 2020, published 2023).
Read-outs that look alike come from different tables or passages of the source.

Assays:
[1] = tested on: EGFR Del19/T790M/C797S (BaF3-DTC cells); assay: EGFR degradation HTRF assay, BaF3-DTC cells; format: cell-based; conditions: for DTC Dmax (%): maximum percentage of degradation
In short: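 BaF3 (WT, Del19/T790M/C797S) and HCC827 cells exposed 16 h at 37 °C, 5% CO2 to compounds in 0.2% DMSO medium, 8 doses from 10 uM top, 5-fold steps. Lysates read by HTRF (665/620 nm); degradation % vs DMSO control, DC50 from four-parameter fit, Dmax as maximal degradation.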

[2] = molecular target: T1, EGFR L858R/T790M/C797S (BaF3-LTC cells) (Homo sapiens, UniProt P00533, C797S/L858R/T790M); assay: EGFR degradation HTRF assay, BaF3-LTC cells; format: cell-based; conditions: BaF3-LTC, 16h treatment; for Dmax: maximum percentage of degradation, read-out: LTC Dmax (%); for DC50: read-out: LTC DC50
T1 construct: expressed in transfected cells; host or cells: BaF3
In short: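 Cells treated 16 h at 37 °C, 5% CO2 in medium with 0.2% DMSO; top final concentration 10 uM, 5-fold dilution, 8 doses. Lysates read by HTRF (665/620 nm); degradation % versus DMSO high control, DC50 from four-parameter fit, Dmax as maximal degradation.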

[3] = 16h treatment, read-out: DTC DC50

T1 sequence (P00533 25-1210 T790M/C797S/L858R): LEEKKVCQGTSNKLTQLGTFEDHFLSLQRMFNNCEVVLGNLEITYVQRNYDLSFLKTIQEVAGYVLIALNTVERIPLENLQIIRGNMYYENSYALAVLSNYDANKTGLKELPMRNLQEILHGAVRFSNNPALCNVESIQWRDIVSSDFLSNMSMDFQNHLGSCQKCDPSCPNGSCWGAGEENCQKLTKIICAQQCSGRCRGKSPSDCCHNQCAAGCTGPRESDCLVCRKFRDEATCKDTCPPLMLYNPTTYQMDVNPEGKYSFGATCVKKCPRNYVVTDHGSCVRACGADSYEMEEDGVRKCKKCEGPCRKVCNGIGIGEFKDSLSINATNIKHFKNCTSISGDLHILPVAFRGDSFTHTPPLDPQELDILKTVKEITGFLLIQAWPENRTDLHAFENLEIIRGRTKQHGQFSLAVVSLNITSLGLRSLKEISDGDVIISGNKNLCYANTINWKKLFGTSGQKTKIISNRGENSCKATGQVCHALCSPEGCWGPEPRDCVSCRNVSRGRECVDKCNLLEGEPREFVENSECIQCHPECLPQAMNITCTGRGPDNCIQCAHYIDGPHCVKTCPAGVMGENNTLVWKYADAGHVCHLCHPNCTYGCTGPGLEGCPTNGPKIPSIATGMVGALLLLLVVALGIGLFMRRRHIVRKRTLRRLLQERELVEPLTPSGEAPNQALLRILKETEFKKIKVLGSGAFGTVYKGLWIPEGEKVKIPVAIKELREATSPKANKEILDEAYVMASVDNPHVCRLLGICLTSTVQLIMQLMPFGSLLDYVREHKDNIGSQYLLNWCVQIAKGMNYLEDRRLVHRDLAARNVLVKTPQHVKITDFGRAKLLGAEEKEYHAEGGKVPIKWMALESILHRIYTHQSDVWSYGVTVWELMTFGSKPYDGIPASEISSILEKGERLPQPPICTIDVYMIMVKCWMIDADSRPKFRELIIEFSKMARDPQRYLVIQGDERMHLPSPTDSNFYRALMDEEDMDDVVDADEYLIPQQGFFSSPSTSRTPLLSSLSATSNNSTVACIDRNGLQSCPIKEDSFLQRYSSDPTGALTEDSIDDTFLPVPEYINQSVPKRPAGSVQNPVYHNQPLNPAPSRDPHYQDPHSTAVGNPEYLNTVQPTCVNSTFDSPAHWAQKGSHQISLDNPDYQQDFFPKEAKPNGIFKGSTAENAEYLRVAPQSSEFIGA

Structure (SMILES)	DTC Dmax (%) ([1]; 16h treatment)	DC50 [1, 3] [nM]	Dmax [2] [%]	DC50 [2] [nM]	DC50 ([1]; read-out: DTC DC50, 16h treatment) [nM]
CCc1cc(Nc2ncc(Br)c(Nc3ccc4nccnc4c3P(C)(C)=O)n2)c(OC)cc1N1CCC(N2CCN(C(=O)[C@H]3CCN(c4ccc5c(c4)CN(C4CCC(=O)NC4=O)C5=O)C3)CC2)CC1 (stereo partly drawn) [Example 240, 3-(5-((S)-3-(4-(1-(4-((5-bromo-4-((5-(dimethylphosphoryl)quinoxalin-6-yl)amino)pyrimidin-2-yl)amino)-2-ethyl-5-methoxyphenyl)piperidin-4-yl)piperazine-1-carbonyl)pyrrolidin-1-yl)-1-oxoisoindolin-2-yl)piperidine-2,6-dione]	89.2	3.83	87.7	5.95	
COc1cc(N2CCN(C3CN(C(=O)c4cnc(C(=O)Nc5ccc(C6CCC(=O)NC6=O)cc5)cn4)C3)CC2)c(C)cc1Nc1ncc(Br)c(Nc2ccc3nccnc3c2P(C)(C)=O)n1 (stereo not drawn) [Example 723, 5-(3-(4-(4-((5-bromo-4-((5-(dimethylphosphoryl)quinoxalin-6-yl)amino)pyrimidin-2-yl)amino)-5-methoxy-2-methylphenyl)piperazin-1-yl)azetidine-1-carbonyl)-N-(4-(2,6-dioxopiperidin-3-yl)phenyl)pyrazine-2-carboxamide]	76.49	5.67	81.7	12.1	
CCc1cc(Nc2ncc(Br)c(Nc3ccc4nccnc4c3P(C)(C)=O)n2)c(OC)cc1N1CCC(N2CCN(CCc3cc(F)c(C4CCC(=O)NC4=O)cc3F)CC2)CC1 (stereo not drawn) [Example 233, 3-(4-(2-(4-(1-(4-((5-bromo-4-((5-(dimethylphosphoryl)quinoxalin-6-yl)amino)pyrimidin-2-yl)amino)-2-ethyl-5-methoxyphenyl)piperidin-4-yl)piperazin-1-yl)ethyl)-2,5-difluorophenyl)piperidine-2,6-dione]	86.57	13.1	80.6	35.3	
CCc1cc(Nc2ncc(Br)c(Nc3ccc4nccnc4c3P(C)(C)=O)n2)c(OC)cc1N1CCC(N2CCN(C(=O)[C@@H]3CCN(c4ccc(C5CCC(=O)NC5=O)cc4)C3)CC2)CC1 (stereo partly drawn) [Example 224, 3-(4-((R)-3-(4-(1-(4-((5-bromo-4-((5-(dimethylphosphoryl)quinoxalin-6-yl)amino)pyrimidin-2-yl)amino)-2-ethyl-5-methoxyphenyl)piperidin-4-yl)piperazine-1-carbonyl)pyrrolidin-1-yl)phenyl)piperidine-2,6-dione]	87.47	8.41	81.5	37.2	
CCc1cc(Nc2ncc(Br)c(Nc3ccc4nccnc4c3P(C)(C)=O)n2)c(OC)cc1N1CCC(N2CCN(C(=O)[C@H]3CCN(c4ccc(C5CCC(=O)NC5=O)cc4)C3)CC2)CC1 (stereo partly drawn) [Example 223, 3-(4-((S)-3-(4-(1-(4-((5-bromo-4-((5-(dimethylphosphoryl)quinoxalin-6-yl)amino)pyrimidin-2-yl)amino)-2-ethyl-5-methoxyphenyl)piperidin-4-yl)piperazine-1-carbonyl)pyrrolidin-1-yl)phenyl)piperidine-2,6-dione]	86.61	8.56	82.9	31.3	
CCc1cc(Nc2ncc(Br)c(Nc3ccc4nc(C)ccc4c3P(C)(C)=O)n2)c(OC)cc1N1CCC(N2CCN(C(=O)C3CCN(c4ccc5c(c4)C(C)(C)C(=O)N5C4CCC(=O)NC4=O)CC3)CC2)CC1 (stereo not drawn) [Example 436, 3-(5-(4-(4-(1-(4-((5-bromo-4-((5-(dimethylphosphoryl)-2-methylquinolin-6-yl)amino)pyrimidin-2-yl)amino)-2-ethyl-5-methoxyphenyl)piperidin-4-yl)piperazine-1-carbonyl)piperidin-1-yl)-3,3-dimethyl-2-oxoindolin-1-yl)piperidine-2,6-dione]	89.14		92.5	3.2	2.38
CCc1cc(Nc2ncc(Br)c(Nc3ccc4ncn(C)c(=O)c4c3P(C)(C)=O)n2)c(OC)cc1N1CCC(N2CCN(C(=O)C3CCN(c4cc(F)c(C5CCC(=O)NC5=O)c(F)c4)C3)CC2)CC1 (stereo not drawn) [Example 701, 3-(4-(3-(4-(1-(4-((5-bromo-4-((5-(dimethylphosphoryl)-3-methyl-4-oxo-3,4-dihydroquinazolin-6-yl)amino)pyrimidin-2-yl)amino)-2-ethyl-5-methoxyphenyl)piperidin-4-yl)piperazine-1-carbonyl)pyrrolidin-1-yl)-2,6-difluorophenyl)piperidine-2,6-dione]	90.24	2.23	92.7	9.87	
CCc1cc(Nc2ncc(Br)c(Nc3ccc4nc(C)ccc4c3P(C)(C)=O)n2)c(OC)cc1N1CCC(N2CCN(CCCOc3cc(F)c(C4CCC(=O)NC4=O)c(F)c3)CC2)CC1 (stereo not drawn) [Example 704, 3-(4-(3-(4-(1-(4-((5-bromo-4-((5-(dimethylphosphoryl)-2-methylquinolin-6-yl)amino)pyrimidin-2-yl)amino)-2-ethyl-5-methoxyphenyl)piperidin-4-yl)piperazin-1-yl)propoxy)-2,6-difluorophenyl)piperidine-2,6-dione]	82.31	3.98	90.4	21.9	
CCc1cc(Nc2ncc(Br)c(Nc3ccc4nccnc4c3P(C)(C)=O)n2)c(OC)cc1N1CCC(N2CCN(CC3CN(c4ccc(C5CCC(=O)NC5=O)cc4)C3)CC2)CC1 (stereo not drawn) [Example 231, 3-(4-(3-((4-(1-(4-((5-bromo-4-((5-(dimethylphosphoryl)quinoxalin-6-yl)amino)pyrimidin-2-yl)amino)-2-ethyl-5-methoxyphenyl)piperidin-4-yl)piperazin-1-yl)methyl)azetidin-1-yl)phenyl)piperidine-2,6-dione]	76.04	8.28	77.6	25.3	
CCc1cc(Nc2ncc(Br)c(Nc3ccc4nc(C)ccc4c3P(C)(C)=O)n2)c(OC)cc1N1CCC(N2CCN(CCc3ccc4c(c3)C(C)(C)C(=O)N4C3CCC(=O)NC3=O)CC2)CC1 (stereo not drawn) [Example 711, 3-(5-(2-(4-(1-(4-((5-bromo-4-((5-(dimethylphosphoryl)-2-methylquinolin-6-yl)amino)pyrimidin-2-yl)amino)-2-ethyl-5-methoxyphenyl)piperidin-4-yl)piperazin-1-yl)ethyl)-3,3-dimethyl-2-oxoindolin-1-yl)piperidine-2,6-dione]	91.94	0.505	90.8	2.88	
CCc1cc(Nc2ncc(Br)c(Nc3ccc4nccnc4c3P(C)(C)=O)n2)c(OC)cc1N1CCC(N2CCN(CCc3ccc(C4CCC(=O)NC4=O)c(F)c3)C[C@@H]2COC)CC1 (stereo partly drawn) [Example 286, 3-(4-(2-((R)-4-(1-(4-((5-bromo-4-((5-(dimethylphosphoryl)quinoxalin-6-yl)amino)pyrimidin-2-yl)amino)-2-ethyl-5-methoxyphenyl)piperidin-4-yl)-3-(methoxymethyl)piperazin-1-yl)ethyl)-2-fluorophenyl)piperidine-2,6-dione]	75.85	23.7	81.5	59.3	
CCc1cc(Nc2ncc(Br)c(Nc3ccc4c(=O)n(C)ncc4c3P(C)(C)=O)n2)c(OC)cc1N1CCC(N2CCN(CCc3cc(F)c(C4CCC(=O)NC4=O)c(F)c3)CC2)CC1 (stereo not drawn) [Example 431, 3-(4-(2-(4-(1-(4-((5-bromo-4-((5-(dimethylphosphoryl)-2-methyl-1-oxo-1,2-dihydrophthalazin-6-yl)amino)pyrimidin-2-yl)amino)-2-ethyl-5-methoxyphenyl)piperidin-4-yl)piperazin-1-yl)ethyl)-2,6-difluorophenyl)piperidine-2,6-dione]	97.96	2.7	91	12.4	
CCc1cc(Nc2ncc(Br)c(Nc3ccc4nccnc4c3P(C)(C)=O)n2)c(OC)cc1N1CCC(N2CCN(CCc3cc(F)c(C4CCC(=O)NC4=O)c(Cl)c3)CC2)CC1 (stereo not drawn) [Example 238, 3-(4-(2-(4-(1-(4-((5-bromo-4-((5-(dimethylphosphoryl)quinoxalin-6-yl)amino)pyrimidin-2-yl)amino)-2-ethyl-5-methoxyphenyl)piperidin-4-yl)piperazin-1-yl)ethyl)-2-chloro-6-fluorophenyl)piperidine-2,6-dione]	93.21	9.2	88.3	39.3	
CCc1cc(Nc2ncc(Br)c(Nc3ccc4nc(C)ccc4c3P(C)(C)=O)n2)c(OC)cc1N1CCC(N2CCN(CCc3cc(F)c(C4CCC(=O)NC4=O)c(F)c3)CC2)CC1 (stereo not drawn) [Example 314, 3-(4-(2-(4-(1-(4-((5-bromo-4-((5-(dimethylphosphoryl)-2-methylquinolin-6-yl)amino)pyrimidin-2-yl)amino)-2-ethyl-5-methoxyphenyl)piperidin-4-yl)piperazin-1-yl)ethyl)-2,6-difluorophenyl)piperidine-2,6-dione]	91.87	2.48	87.8	6.5	
COc1cc(N2CCN(C3CN(CCC4CCN(c5cc(F)c(C6CCC(=O)NC6=O)c(F)c5)CC4)C3)CC2)c(C)cc1Nc1ncc(Br)c(Nc2ccc3nccnc3c2P(C)(C)=O)n1 (stereo not drawn) [Example 204, 3-(4-(4-(2-(3-(4-(4-((5-bromo-4-((5-(dimethylphosphoryl)quinoxalin-6-yl)amino)pyrimidin-2-yl)amino)-5-methoxy-2-methylphenyl)piperazin-1-yl)azetidin-1-yl)ethyl)piperidin-1-yl)-2,6-difluorophenyl)piperidine-2,6-dione]	91.45	15.6	85.7	31	
